Experimental findings from US12207672B2, “Compounds that modulate GPR92 receptor activity and pet food products containing the same” (MARS, INCORPORATED, priority 2018, dated 2025) are described below.

This assay has as its system fGPR92 receptor. Kind of assay: fGPR92 activation in CHO-K1 cells, calcium sensitive fluorescent dye (FLIPR Tetra), agonist mode. The class given is cell-based, cat. The note with it: CHO-K1 cells stably expressing fGPR92. Here is the method: The present example describes the activation of the cat GPR92 receptor (fGPR92) by various compounds and compositions in vitro. Samples that can function as GPR92 agonists were identified by in vitro functional characterization. The effectiveness of a sample in activating the fGPR92 receptor was evaluated. Methods: CHO-Kl cells stably expressing fGPR92 were used to screen 118 test samples to identify samples that can activate the fGPR92 receptor. Activation of the fGPR92 receptor was detected by changes in intracellular calcium levels using a calcium sensitive fluorescent dye. Cells without fGPR92 receptor expression (mock cells) were used as a control. A FLIPR® Tetra system was used for data capture. Each sample was first tested for its ability to activate fGPR92 at three different dose levels in both agonist mode and positive allosteric modulator mode. Active samples were further tested at eight different dose levels in both agonist mode and positive allosteric modulator mode. Peptone from Sigma-Aldrich (product number: P5905; CAS number 73049-73-7) was used in this Example. Dose response curves were then generated for each sample. Menthol and cinnamaldehyde were used as negative controls. In the agonist mode (AGO), 14:0 LPA at 10 μM (EC100) was used as a positive control and the assay buffer was used as a negative control. […]

With `CC(C)[C@@H]1CC[C@@H](C)C[C@H]1O` [Menthol, L-menthol], the “activation of fGPR92 receptor” value is given as “did not activate fGPR92 receptor”.

`O=C/C=C/c1ccccc1` [cinnamaldehyde, cinnamic aldehyde]: the “activation of fGPR92 receptor” value was “did not activate fGPR92 receptor”.
